Literature values in US20130108982A1, “Reshapable Device for Fixation at a Dental Site” (COLLDENT Y.A. LTD., priority 2007, published 2013).

Tests used:
[1] = system: bacteria

Structure (SMILES)	acute lethal dose of fluoride (F) (acute) [mg F/Kg body weight]	chronic toxicity (chronic) [mg F/Kg]	antibacterial activity [1]
F [fluoride]	33	0.1	
[F][Sn][F] [stannous fluoride]			has shown antibacterial activity
